In series [1] the test system is REMICADE®. As to the kind of experiment: Viscosity of aqueous solutions of […]® with viscosity-lowering agents. In kind it is physicochemical. The conditions noted are these: 25° C. As for the experimental part: (§1) (unless otherwise indicated).
An extrapolated zero-shear viscosity was determined from a plot of absolute viscosity versus shear rate.
Following reconstitution, the viscosity of each solution was measured using the microfluidic viscometer as described in previous examples. The solutions were then back-loaded into 1 mL BD insulin syringes with 27, 29, or 31 gauge fixed needles. The force required to extrude the concentrated […]® solutions was then measured using an Instron at a rate of displacement equivalent to a fluid flow rate of 3 mL/min. The expelled solution was collected from the syringe and analyzed by size-exclusion chromatography.

Series [2] relates to TYSABRI®. In words: Viscosity of aqueous solutions of TYSABRI® with viscosity-lowering agents. In kind it is physicochemical. The conditions noted are these: 25° C.
In series [3] the test system is biosimilar AVASTIN®. As to the kind of experiment: Viscosity of aqueous solutions of biosimilar AVASTIN® with viscosity-lowering agents. In kind it is physicochemical. The conditions noted are these: for Magnitude of viscosity-lowering effect (replacement of PB with CSAL): 0.25 M.
The test system of series [4] is branded ERBITUX®. In words: Viscosity of aqueous solutions of branded ERBITUX®. In kind it is physicochemical. The note with it: 224 ± 4 mg/mL mAb; phosphate buffer or 0.25M BSAA; 25° C., pH 7.0.
Excerpt: as §1

In series [5] the test system is biosimilar ERBITUX®. As to the kind of experiment: Viscosity of aqueous solutions of biosimilar ERBITUX® with viscosity-lowering agents. The note with it: for Fold Reduction: vs phosphate buffer.
Protocol: All viscosities of well-mixed aqueous mAb solutions were measured using either a mVROC microfluidic viscometer (RheoSense) or a DV2T cone and plate viscometer (Brookfield; “C & P”) after a 5 minute equilibration at 25° C. (unless otherwise indicated). The mVROC viscometer was equipped with an “A” or “B” chip, each manufactured with a 50 micron channel. Typically, 0.10 mL of protein solution was back-loaded into a gastight microlab instrument syringe (Hamilton; 100 μL), affixed to the chip, and measured at multiple flow rates, approximately 20%, 40%, and 60% of the maximum pressure for each chip. […] An average absolute viscosity and standard deviation was then calculated from at least these three measurements. The C & P viscometer was equipped with a CPE40 or CPE52 spindle (cone angle of 0.8° and 3.0°, respectively) and 0.50 mL samples were measured at multiple shear rates between 2 and 400 s^−1. […] An extrapolated zero-shear viscosity was then determined from a plot of dynamic viscosity versus shear rate for the samples measured on a DV2T cone and plate viscometer. The extrapolated zero-shear viscosities reported are the average and standard deviation of at least three measurements.
First, Polysorbate 80 was removed using DETERGENT-OUT® TWEEN® Medi Columns (G-Biosciences). […] The collected protein solution was freeze-dried. The dried protein cakes, containing protein and buffer salts or agent, were reconstituted to a final volume of 0.15-1.3 mL. […] Reported protein concentrations represent the range of all protein samples included in each Table or Figure. Specifically, reported values are the median plus or minus half the range. Extrapolated zero-shear using an experimentally determined extinction coefficient of 1.4 L/g·cm and viscosities reported were measured on a DV2T cone and plate viscometer.
The final concentration of CSAL upon reconstitution in an aqueous CSAL solution ranged from 0.25 M to 0.50 M.
Specifically, 20 mM solutions of the viscosity-lowering agents of interest were used for buffer exchange, and the lyophilized cakes were reconstituted to 0.25 M of each viscosity-lowering agent. […] The sample was first aliquoted. […] The dried protein cakes, containing protein and viscosity-lowering agent (and a negligible amount of buffer salts) were reconstituted to a final volume of approximately 0.10 mL and viscosity-lowering agent concentration as previously described.
First, Polysorbate was removed from the commercially obtained mAb solutions.
Specifically, 20 mM solutions of the salts of interest were used for buffer exchange, and the lyophilized cakes were reconstituted to contain 0.25 M of each agent. Viscosities were measured using either a RheoSense mVROC microfluidic viscometer equipped with an “A” or “B” chip or a DV2T cone and plate viscometer.
Subsequently, the aqueous drug product was purified, buffer exchanged, concentrated, dried, reconstituted, and analyzed as described in the same manner. Viscosities reported were measured on a RheoSense mVROC microfluidic viscometer.
Series [6] deals with HERCEPTIN®. In words: Viscosity of aqueous solutions of HERCEPTIN® with viscosity-lowering agents. In kind it is physicochemical. The note with it: 25° C.
Protocol: All viscosities of well-mixed aqueous mAb solutions were measured using either a mVROC microfluidic viscometer (RheoSense) or a DV2T cone and plate viscometer (Brookfield; “C & P”) after a 5 minute equilibration at 25° C. (unless otherwise indicated). The mVROC viscometer was equipped with an “A” or “B” chip, each manufactured with a 50 micron channel. Typically, 0.10 mL of protein solution was back-loaded into a gastight microlab instrument syringe (Hamilton; 100 μL), affixed to the chip, and measured at multiple flow rates, approximately 20%, 40%, and 60% of the maximum pressure for each chip. […] An average absolute viscosity and standard deviation was then calculated from at least these three measurements. The C & P viscometer was equipped with a CPE40 or CPE52 spindle (cone angle of 0.8° and 3.0°, respectively) and 0.50 mL samples were measured at multiple shear rates between 2 and 400 s^−1. Specifically, samples were measured for 30 seconds each at 22.58, 24.38, 26.25, 28.13, 30, 31.88, 45, 67.5, 90, 112.5, 135, 157.5, 180, 202.5, 247, 270, 292.5, 315, 337.5, 360, 382, 400 s^−1, starting at a shear rate that gave at least 10% torque, and continuing until instrument torque reached 100%. An extrapolated zero-shear viscosity was then determined from a plot of dynamic viscosity versus shear rate for the samples measured on a DV2T cone and plate viscometer. The extrapolated zero-shear viscosities reported are the average and standard deviation of at least three measurements.
Viscosities were measured using a RheoSense mVROC microfluidic viscometer equipped with an “A” or “B” chip.
Viscosities reported were measured on a RheoSense mVROC microfluidic viscometer.
The subject of series [7] is SIMPONI ARIA®. The note with it: […] thiamine HCl vs […] phosphate buffer; FIG. 9.
Protocol: (§2) All viscosities of well-mixed aqueous mAb solutions were measured using either a mVROC microfluidic viscometer (RheoSense) or a DV2T cone and plate viscometer (Brookfield; “C & P”) after a 5 minute equilibration at 25° C. […] The mVROC viscometer was equipped with an “A” or “B” chip, each manufactured with a 50 micron channel. Typically, 0.10 mL of protein solution was back-loaded into a gastight microlab instrument syringe (Hamilton; 100 μL), affixed to the chip, and measured at multiple flow rates, approximately 20%, 40%, and 60% of the maximum pressure for each chip. […] An average absolute viscosity and standard deviation was then calculated from at least these three measurements. The C & P viscometer was equipped with a CPE40 or CPE52 spindle (cone angle of 0.8° and 3.0°, respectively) and 0.50 mL samples were measured at multiple shear rates between 2 and 400 s^−1. Specifically, samples were measured for 30 seconds each at 22.58, 24.38, 26.25, 28.13, 30, 31.88, 45, 67.5, 90, 112.5, 135, 157.5, 180, 202.5, 247, 270, 292.5, 315, 337.5, 360, 382, 400 s^−1, starting at a shear rate that gave at least 10% torque, and continuing until instrument torque reached 100%. An extrapolated zero-shear viscosity was then determined from a plot of dynamic viscosity versus shear rate for the samples measured on a DV2T cone and plate viscometer. […]
Series [8] concerns biosimilar AVASTIN®, TYSABRI®, HERCEPTIN®, biosimilar ERBITUX®, REMICADE®. The note with it: thiamine HCl 0.1-0.25 M vs 0.25 M PB; Table 33.
Protocol: as §2
Series [9] has as its system ENBREL®.
Protocol: All viscosities of well-mixed aqueous mAb solutions were measured using either a mVROC microfluidic viscometer (RheoSense) or a DV2T cone and plate viscometer (Brookfield; “C & P”) after a 5 minute equilibration at 25° C. […] The mVROC viscometer was equipped with an “A” or “B” chip, each manufactured with a 50 micron channel. Typically, 0.10 mL of protein solution was back-loaded into a gastight microlab instrument syringe (Hamilton; 100 μL), affixed to the chip, and measured at multiple flow rates, approximately 20%, 40%, and 60% of the maximum pressure for each chip. […] An average absolute viscosity and standard deviation was then calculated from at least these three measurements. The C & P viscometer was equipped with a CPE40 or CPE52 spindle (cone angle of 0.8° and 3.0°, respectively) and 0.50 mL samples were measured at multiple shear rates between 2 and 400 s^−1. Specifically, samples were measured for 30 seconds each at 22.58, 24.38, 26.25, 28.13, 30, 31.88, 45, 67.5, 90, 112.5, 135, 157.5, 180, 202.5, 247, 270, 292.5, 315, 337.5, 360, 382, 400 s^−1, starting at a shear rate that gave at least 10% torque, and continuing until instrument torque reached 100%. An extrapolated zero-shear viscosity was then determined from a plot of dynamic viscosity versus shear rate for the samples measured on a DV2T cone and plate viscometer. The extrapolated zero-shear viscosities reported are the average and standard deviation of at least three measurements.
ENBREL® obtained commercially and containing pharmaceutical excipients (Mannitol, Sucrose, Tromethamine) was purified, buffer exchanged, concentrated, dried, reconstituted, and analyzed as described in Example 1 above (using the extinction coefficient of 0.96 L/g·cm at 280 nm).
Series [10] concerns Crohn's and ulcerative colitis patients. The note with it: studies evaluating long-term clinical outcomes; cited from earlier work.
Series [11] concerns branded AVASTIN®. As to the kind of experiment: Viscosity of aqueous solutions of branded AVASTIN®. The note with it: 205 ± 5 mg/mL mAb. In kind it is physicochemical. The procedure: as §1
Subsequently, the appropriate amount of viscosity-lowering agent was added to result in a final viscosity-lowering agent concentration of 0.15-0.35 M upon reconstitution.

The subject of series [12] is bovine gamma globulin. In words: Viscosity of aqueous gamma globulin solutions on two viscometers. In kind it is physicochemical. The conditions noted are these: without CSAL, or with 0.25M CSAL (label CSAL), 25° C., pH 7.0. The procedure:
as §1
Aqueous solutions containing 220 mg/mL […]® and 0.25 M CSAA were prepared as described above Example 1. The viscosities at 25° C. and pH 7.0 are reported in Table 29 as extrapolated zero-shear viscosities from cone and plate viscometer measurements and as absolute viscosities measured with a microfluidic viscometer. […] An extrapolated zero-shear viscosity was determined from a plot of absolute viscosity versus shear rate.
In order to compare a broader range of viscosities and protein concentrations, aqueous solutions of a model antibody, bovine gamma globulin, were prepared with and without 0.25 M CSAL. The viscosities were measured as described above at protein concentrations ranging from 110 mg/mL to 310 mg/mL.

Where [13] appears, read: 166 ± 4 mg/mL REMICADE, 0.25M agent, pH 7.0.
Setting [14] is: 222 ± 6 mg/mL REMICADE, 0.25M agent, pH 7.0.
The mark [15] stands for this setting: 200 ± 5 mg/mL mAb, pH 7.0, 25° C., [Salt] 0.25 M of anion, C & P viscometer.
The mark [16] stands for this setting: 222 ± 5 mg/mL mAb, pH 7.0, 0.25M agent, 25° C.
The mark [17] stands for this setting: 225 ± 5 mg/mL mAb, pH 7.0, 0.25M agent, 20° C.
Setting [18] is: 225 ± 5 mg/mL mAb, pH 7.0, 0.25M agent, 25° C.
The mark [19] stands for this setting: 225 ± 5 mg/mL mAb, pH 7.0, 0.25M agent, 30° C.
Where [20] appears, read: 155 ± 5 mg/mL mAb, pH 7.0, 25° C., [CSAL] 0.25 M.
The mark [21] stands for this setting: 155 ± 5 mg/mL mAb, pH 7.0, 25° C., [CSAL] 0.38 M.
The mark [22] stands for this setting: 155 ± 5 mg/mL mAb, pH 7.0, 25° C., [CSAL] 0.50 M.

Structures can show the parent of a compound that is named as a salt. Where two headings read alike, the source gives them in different places.

Results on four molecules are retold here after patent US9925263B2, “Liquid pharmaceutical formulations for injection comprising procaine and uses thereof” (EAGLE BIOLOGICS, INC., priority 2013, dated 2018).

Turning to `N=C(N)NCCC[C@H](N)C(=O)O.O=S(=O)(O)c1ccccc1` [BSAA, benzenesulfonic acid arginine], the Viscosity is 26.7 ± 1.2 cP in series [1] (setting [13]); 92.3 ± 1.4 cP in series [1] (setting [14]); 34.9 ± 1.3 cP in [2] (230 ± 2 mg/mL TYSABRI, 0.25M agent, pH 7.0); 75.3 ± 0.4 cP in series [3] (setting [15]); 53.4 ± 5.5 cP in series [5] (setting [16]); 85.2 ± 0.6 cP in series [5] (setting [17]). Moreover, the Viscosity in [5] (setting [18]) is 61.3 ± 0.9 cP; in series [5] (setting [19]), 50.5 ± 1.9 cP; in series [6] (254 ± 3 mg/mL HERCEPTIN, 0.25M salt, pH 7.0), 75.4 ± 5.0 cP; in [6] (270 ± 6 mg/mL HERCEPTIN, 0.25M salt, pH 7.0), 115 ± 6 cP. Also, in series [4], the “Branded ERBITUX ® viscosity” value is on record as 44.1 ± 0.5 cP. Moreover, in series [5] (224 ± 4 mg/mL mAb, phosphate buffer or 0.25M BSAA, 25° C., pH 7.0), the “Biosimilar ERBITUX ® viscosity” value was 53.4 ± 5.5 cP. The “Fold Reduction” value was roughly 21 fold in [5] (setting [16]) and 21.2 fold in series [5] (222 ± 5 mg/mL mAb, pH 7.0, 0.25M agent, 25° C., listed as BSA Arginine).

Consider `Cc1ncc(C[n+]2csc(CCO)c2C)c(N)n1` [Thiamine HCl], for which the Viscosity in series [1] (178 mg/mL REMICADE, excipient […]) was found to be 40.7 ± 0.3 cP; in series [2] (244 mg/mL TYSABRI, excipient 0.1 M), 43.4 ± 0.7 cP; in [3] (190 mg/mL mAb, excipient 0.1 M, 25° C.) it was 31.5 ± 1.7 cP; in [3] (225 mg/mL mAb, excipient 0.25 M, 25° C.) it was 53.3 ± 6.8 cP; in series [6] (218 mg/mL HERCEPTIN, excipient 0.1 M) it was 41.6 ± 0.5 cP; in series [6] (245 mg/mL HERCEPTIN, 0.10M agent) it was 41.5 ± 0.5 cP. For the same molecule, the Viscosity in [9] (212 ± 7 mg/mL ENBREL) came to 141 ± 3; in series [9] (250 ± 3 mg/mL ENBREL), 305 ± 7; in series [9] (271 ± 0 mg/mL ENBREL) it was 626 ± 32. Moreover, the “Viscosity gradient (increase in viscosity with mAb concentration)” value in series [7] is on record as “the viscosity gradient is reduced”. In addition, the “Viscosity reduction for each mAb” value in series [8] is listed as “greater than 4 fold”. Also, the Viscosity reduction entry in series [9] ([…] thiamine HCl vs […] PB) is on record as “up to 2 fold”.

Take “Vedolizumab: mAb being developed by Millennium Pharmaceuticals for ulcerative colitis and Crohn's disease”: the “Patients achieving clinical remission” value in [10] is on record as roughly 60%.

Regarding camphorsulfonic acid lysine [CSAL], the Viscosity in series [1] (setting [13]) worked out at 27.4 ± 0.2 cP; in series [1] (setting [14]) it was 95.3 ± 1.1 cP; in series [3] (210 mg/mL mAb, 0.25 M agent, 25° C., pH 7.0) it was 63.0 ± 1.8 cP; in [3] (101 ± 5 mg/mL mAb, pH 7.0, 25° C., formulation per label (CSAL 0.25M)), 4.03 ± 0.24 cP; in [3] (setting [15]) it was 54.9 ± 0.9 cP; in series [3] (228 ± 5 mg/mL mAb, agent 0.25 M, 25° C., pH 7.0) it was 113 ± 0 cP. Further, the Viscosity in series [3] (230 ± 5 mg/mL mAb, pH 7.0, 0.25M, 20° C.) stood at 152 ± 0 cP; in [3] (230 ± 5 mg/mL mAb, pH 7.0, 0.25M, 25° C.), 107 ± 4 cP; in series [3] (230 ± 5 mg/mL mAb, pH 7.0, 0.25M, 30° C.), 95.5 ± 5.4 cP; in series [3] (230 ± 5 mg/mL mAb, pH 7.0, […], 20° C.) it was 157 ± 0 cP; in series [3] (230 ± 5 mg/mL mAb, pH 7.0, […], 25° C.) it was 113 ± 0 cP; in [3] (230 ± 5 mg/mL mAb, pH 7.0, […], 30° C.), 91.7 ± 3.3 cP. The Viscosity in [5] (80 ± 5 mg/mL mAb, pH 7.0, 25° C., formulation per label (CSAL 0.25M)) was found to be 3.08 ± 0.18 cP; in series [5] (155 ± 5 mg/mL mAb, pH 7.0, 25° C., [CSAL] 0 M (0.25 M phosphate buffer control)), 154 ± 0 cP; in series [5] (setting [20]), 18.3 ± 0.0 cP; in series [5] (setting [21]), 14.9 ± 0.1 cP; in series [5] (setting [22]), 12.7 ± 0.1 cP; in series [5] (setting [16]), 109 ± 1 cP. In addition, the Viscosity in [5] (setting [17]) was 166 ± 2 cP; in series [5] (setting [18]), 109 ± 1 cP; in series [5] (setting [19]), 78.4 ± 1.5 cP; in [12] (170 mg/mL gamma globulin, C & P), 10.3 ± 1.0 cP; in [12] (170 mg/mL gamma globulin, microfluidic) it was 10.6 ± 0.1 cP; in series [12] (260 mg/mL gamma globulin, C & P), 93.5 ± 1.2 cP. Besides, the Viscosity came out at 85.3 ± 0.3 cP in series [12] (260 mg/mL gamma globulin, microfluidic); 223 ± 1 cP in series [12] (310 mg/mL gamma globulin, C & P); 203 ± 2 cP in [12] (310 mg/mL gamma globulin, microfluidic). The “Fold reduction in viscosity” value in series [11] (0.25 M CSAL vs phosphate buffer) is 3.3 fold; in series [3] (0.25 M CSAL vs phosphate buffer, 205 ± 5 mg/mL mAb), 1.8 fold. For the same molecule, the “Viscosity, Branded AVASTIN ®” value in series [11] (phosphate buffer or 0.25M CSAL, 25° C., pH 7.0) is 46.7 ± 0.9 cP. The “Magnitude of viscosity-lowering effect (replacement of PB with CSAL)” value in series [3] (80 mg/mL mAb, 25° C., pH 7.0) turned out to be 2.1 fold; in [3] (230±5 mg/mL mAb, 25° C., pH 7.0), 3.7 fold; in series [5] (100±5 mg/mL mAb, 0.25 M, 25° C., pH 7.0), 1.1 fold; in series [5] (pH 7) it was 10.3 fold. The “Fold decrease in viscosity in the presence of CSAL” value in [3] (0.25 M CSAL vs original excipients, 101 ± 5 mg/mL mAb, pH 7.0, 25° C.) is recorded as 1.5 fold; in [5] (0.25 M CSAL vs original excipients, 80 ± 5 mg/mL mAb, pH 7.0, 25° C.) it was 2.7 fold. Further, the “Viscosity, Biosimilar AVASTIN ®” value in series [3] (205 ± 5 mg/mL mAb, phosphate buffer or 0.25M CSAL, 25° C., pH 7.0) amounted to 54.9 ± 0.9 cP. Besides, the “Fold viscosity reduction (compared to no CSAL present)” value came to 1 fold in series [5] (155 ± 5 mg/mL mAb, pH 7.0, 25° C., [CSAL] 0 M); 8.4 fold in [5] (setting [20]); 10.3 fold in [5] (setting [21]); 12.1 fold in [5] (setting [22]). In addition, the “Fold Reduction” value in series [5] (setting [16]) stood at 10.4 fold.
